For 8 compounds, Ki results are on record in BindingDB's records for PubMed 2885412 (Unwersity of Misscuri, 1987).

Each structure is given as a SMILES string. “And” between values parts separate entries of the source, which are not always exact repeats. Equal entries are not always repeated.

In general, Ki refers to a measure of affinity in units of concentration, obtained from inhibition or displacement. A low value points to tighter binding.

For the test, the target named is T1, Alpha-1A adrenergic receptor (Canis lupus familiaris, UniProt O77621).
T1 sequence (O77621 whole entry): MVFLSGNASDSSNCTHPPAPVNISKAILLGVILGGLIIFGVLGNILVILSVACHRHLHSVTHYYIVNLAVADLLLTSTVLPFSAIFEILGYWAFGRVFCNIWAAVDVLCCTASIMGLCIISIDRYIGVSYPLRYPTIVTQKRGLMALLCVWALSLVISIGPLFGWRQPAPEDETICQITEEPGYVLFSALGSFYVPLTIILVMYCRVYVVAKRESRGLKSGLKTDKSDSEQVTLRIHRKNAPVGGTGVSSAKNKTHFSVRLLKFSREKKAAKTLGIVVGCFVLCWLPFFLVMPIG
The compound `Clc1cccc(Cl)c1N=C1NCCN1` [2-(2,6-dichloroanilino)-2-imidazoline] yielded a Ki of 37 nM.

On to `CNCC(O)c1ccc(O)c(O)c1` (stereo not drawn) [EPINEPHRINE], for which the Ki is 110 nM and 30 nM.

As to `NCC(O)c1ccc(O)c(O)c1` (stereo not drawn) [Noradrenaline,(+)], the Ki is 178 nM and 67 nM.

Regarding `CNC[C@H](O)c1cccc(O)c1` [PHENYLEPHRINE], the Ki is 901 nM and 213 nM.

For the compound `Cc1ccc(N(CC2=NCCN2)c2cccc(O)c2)cc1` [SMR000059054], the Ki is 2.55 nM and 1.27 nM.

For the compound `Cc1cc(C(C)(C)C)c(O)c(C)c1CC1=NCCN1` [SMR000059324], the Ki was 33 nM and 9 nM.

Regarding `COc1cc2nc(N3CCN(C(=O)c4ccco4)CC3)nc(N)c2cc1OC` [[3H]-Minipress], the Ki was 0.02 nM and 0.01 nM.

In the case of `COC(=O)[C@@H]1[C@H]2C[C@H]3c4[nH]c5ccccc5c4CCN3C[C@@H]2CC[C@@H]1O` [yohimbic acid methyl ester], the Ki was 32 nM and 13.4 nM.
